From paper PMC5286506 (Scientific Reports, 2017)
Read-outs that look alike come from different tables or passages of the source.

Experiments:
EpiVaginal tissue model = conditions: human, 20 μM
Method: (§1) At the end of the incubation at 37 °C, the hydrogel was discarded and the cervicovaginal cultures were washed with PBS to remove any residual hydrogel. The cervicovaginal cultures were analyzed using the MTT kit protocol (MatTek Corporation). Cell cultures incubated with sterile distilled water were employed as a negative control. Triton X-100 (1%)-treated cultures were used as the positive control. The LDH cytotoxicity detection kit (TaKaRa Bio Inc, Japan) was used to detect LDH release from the tissues according to the manufacturer’s protocols. […] After incubation, the concentration of IL-1α in the culture medium was measured using the IL-1α ELISA Kit, according to the manufacturer’s instructions (Bender Medsystem, Wien, Austria). The concentration of IL-1α was calculated by interpolation from a standard calibration curve.

[1] = MTT tissue viability in the EpiVaginal tissue model; type: cell-based; conditions: human, EpiVaginal tissue model (cervicovaginal cultures), 20 μM tenofovir and/or 6.7 μM M48U1 in 0.25% HEC
Method: as §1

[2] = test system: HIV-1 subtype B and C isolates (HIV-1AMBR5N, HIV-1FBR5N, HIV-1SLR5N, HIV-1ARR5X4, HIV-1CSBX4); assay: Patient-derived HIV-1 isolates in activated PBMCs, p24 ELISA on day 7; type: cell-based; conditions: 1 μM M48U1 (five isolates) or 5 μM tenofovir (three isolates from naïve patients) in 0.25% HEC; p < 0.05
Method: (§2) Mock-infected PBMCs were used as the negative control.
(§3) Figure 2 M48U1 in 0.25% HEC and tenofovir in 0.25% HEC each inhibited several laboratory strains and patient-derived HIV-1 isolates. Treatment with either 1 μM M48U1/0.25% (A) or 5 μM tenofovir/0.25% HEC (B) inhibited the replication of all tested laboratory and patient-derived strains. The HIV-1 strain tropism was determined with a sequencing analysis for the patient-derived strains. The combination of the two HIV-1 drugs inhibited HIV-1 replication independent of the HIV-1 strain tropism. HIV-1 replication was monitored by the HIV-1 p24 ELISA assay using cell culture supernatants obtained on day 7 post-infection. […] Three experiments in triplicate were performed. Analysis of antiretroviral activity of 1 μM M48U1 in 0.25% HEC (C) or 5 μM tenofovir in 0.25% HEC (D) performed in TZM-bl cells infected with pREJO.c/2864 and pTHRO.c/2626 T/F IMCs. […] Each sample was performed in triplicate and was repeated in three independent experiments.

in vitro = conditions: human, activated PBMCs
HSV-2 = test system: HSV-2; design: method as in PMID 20643915, PMID 22018238, PMID 20709216; conditions: CAPRISA 004 trial; cited from earlier work
X4-tropic HIV-1IIIb = assay: HIV-1IIIb infection of activated PBMCs, HIV-1 gag p24 ELISA on day 7; type: cell-based
Method: as §2
(§4) The antiviral activity of each drug, M48U1 and tenofovir, formulated in 0.25% HEC hydrogel was determined in an activated PBMC model. […] This mixture was added to PBMCs activated with IL-2 and PHA for a two-hour incubation at 37 °C. To evaluate the antiviral effect of M48U1, the level of HIV-1 gag p24 protein in the culture supernatant was determined at seven days post-infection using an ELISA. A significant decrease (p < 0.05; Mann Whitney test) in the HIV-1 p24 level was found (Fig. 1).
(§5) Figure 1 M48U1 and tenofovir formulated in 0.25% HEC each inhibited the replication of both R5-tropic HIV-1BaL and X4-tropic HIV-1IIIb in activated PBMCs. […] After this incubation, these solutions were used to resuspend activated PBMCs for 2 hours at 37 °C. HIV-1 replication was monitored by a HIV-1 p24 ELISA assay on the cell culture supernatants performed on day 7 post-infection. […] Three experiments in triplicate were performed.

R5-tropic HIV-1BaL = assay: HIV-1BaL infection of activated PBMCs, HIV-1 gag p24 ELISA on day 7; type: cell-based
Method: as §2, §4, §5

pTHRO.c/2626 T/F IMC = assay: T/F IMC infection of TZM-bl cells, luciferase readout; type: cell-based, HIV-1; conditions: pTHRO.c/2626, TZM-bl cells
Method: (§6) TZM-bl cells (1 × 10^4/well in a 100 μL volume) in 10% D-MEM growth medium containing DEAE-dextran (Sigma) at a final concentration of 7.5 μg/mL were then added to the plate. Assay controls included replicate wells of TZM-bl cells alone in HEC 0.25% (cell control) and TZM-bl cells with virus (virus control). Following 72 hours of incubation at 37 °C, 150 μL of culture medium were removed from each well and replaced with 100 μL of Bright-Glo luciferase reagent (Promega). After 2-minutes of incubation, 150 μL of the cell lysate were transferred to a 96-well white solid plate and luminescence was measured using a Victor Light 2030 luminometer (Perkin Elmer). The percentage of infection for each T/F strain was calculated by comparing the relative luminescence units (RLU) of the virus control wells after subtraction of the cell control RLU[44].
(§7) Figure 2 M48U1 in 0.25% HEC and tenofovir in 0.25% HEC each inhibited several laboratory strains and patient-derived HIV-1 isolates. Treatment with either 1 μM M48U1/0.25% (A) or 5 μM tenofovir/0.25% HEC (B) inhibited the replication of all tested laboratory and patient-derived strains. The HIV-1 strain tropism was determined with a sequencing analysis for the patient-derived strains. […] HIV-1 replication was monitored by the HIV-1 p24 ELISA assay using cell culture supernatants obtained on day 7 post-infection. […]

pREJO.c/2864 T/F IMC = assay: as above; type: cell-based, HIV-1; conditions: pREJO.c/2864, TZM-bl cells
Method: as §6, §7

[3] = test system: HIV-1BaL, HIV-1IIIb, HIV-1ADA, HIV-1RU132, HIV-1ARV-2, HIV-1CBL4; assay: Laboratory HIV-1 strains in activated PBMCs, p24 ELISA on day 7; type: cell-based; conditions: 1 μM M48U1 or 5 μM tenofovir in 0.25% HEC; p < 0.05
Method: as §2, §3

HIV-1BaL = assay: HIV-1BaL-infected cervicovaginal histoculture (EpiVaginal), proviral DNA qPCR; type: cell-based; conditions: day 4 post-infection, vs HEC-treated infected samples
Method: The EpiVaginal Tissue Model (VLC-100FT; MatTek Corporation, Ashland, MA, USA) was maintained in a 24-well plate according to the manufacturer’s instructions. […] Subsequently, the wells were challenged with HIV-1BaL (25 ng p24/tissue well) for 24 hours. Mock-infected 0.25% HEC-treated wells were used as negative control. The apical surface of each tissue was washed twice with PBS after incubation with HIV-1BaL and the same formulations were added on day 1 for 24 hours. The underlying media was changed every day, and cervicovaginal tissues were harvested on day 4 post-infection.
Total DNA was extracted and purified from the tissues using the QIAamp DNA Mini Kit (Qiagen, Hilden, Germany). Proviral DNA was quantified by real-time quantitative PCR assay using the HIV-1 DNA qPCR kit (Diatheva, Fano, Italy) based on SYBR Green chemistry as indicated by the manufacturer. […] Total DNA amount was determined by spectrophotometry. The amplification was carried out as follows: an initial cycle of denaturation step at 95 °C for 15 minutes, followed by 10 cycles of denaturation at 95 °C for 15 seconds and annealing/extension at 68 °C for 35 seconds, and a final 35 cycles of denaturation at 95 °C for 15 seconds and annealing/extension with fluorescence acquisition at 68 °C for 35 seconds. […]

[4] = 1 μM M48U1 or 5 μM tenofovir in 0.25% HEC
[5] = 6.7 μM M48U1 or 20 μM tenofovir in 0.25% HEC

C[C@H](Cn1cnc2c(N)ncnc21)OCP(=O)(O)O [tenofovir]
LDH release (Abs) (EpiVaginal tissue model; 1 h): 0.207 ± 0.06 Abs | LDH release (Abs) (EpiVaginal tissue model; 4 h): 0.381 ± 0.05 Abs | LDH release (Abs) (EpiVaginal tissue model; 18 h): 0.922 ± 0.2 Abs | LDH release (Abs) (EpiVaginal tissue model; 96 h): 1.498 ± 0.13 Abs | viability at 1 h, 20 μM ([1]; 1 hour): 95% | viability at 4 h, 20 μM ([1]; 4 hours): 96% | viability at 18 h, 20 μM ([1]; 18 hours): 88% | viability at 96 h, 20 μM ([1]; 96 hours): 104% | infection of PBMCs with patient-derived HIV-1 subtype B and C isolates [2]: inhibited viral replication in all three cases | CC50 at 7 days (in vitro): > 20000 nM | decrease of HSV-2 infections (HSV-2): 51% | inhibition of HIV-1IIIb replication (X4-tropic HIV-1IIIb; [4]): over 90% | IC50 (X4-tropic HIV-1IIIb; Human immunodeficiency virus 1, PBMC, 168 h, HIV-1IIIb, activated PBMCs, drug in 0.25% HEC, p24 day 7 post-infection): 1080 nM | inhibition of HIV-1BaL replication (R5-tropic HIV-1BaL; [4]): over 90% | IC50 (R5-tropic HIV-1BaL; Human immunodeficiency virus 1, PBMC, 168 h, HIV-1BaL, activated PBMCs, drug in 0.25% HEC, p24 day 7 post-infection): 1220 nM | reduction in viral replication (pTHRO.c/2626 T/F IMC; [4]): 78% | reduction in viral replication (pTHRO.c/2626 T/F IMC; [5]): 93% | reduction in viral replication (pREJO.c/2864 T/F IMC; [4]): 86.8% | reduction in viral replication (pREJO.c/2864 T/F IMC; [5]): 95% | replication of laboratory HIV-1 strains (p24 in cell supernatant) [3]: suppressed the replication of all HIV-1 strains tested | decrease in the amount of proviral HIV-1 DNA (folds of inhibition, mean) (HIV-1BaL; 0.67 μM M48U1, 2 μM tenofovir or both in 0.25% HEC): 11 fold | decrease in the amount of proviral HIV-1 DNA (folds of inhibition, mean) (HIV-1BaL; 6.7 μM M48U1, 20 μM tenofovir or both in 0.25% HEC): ~45 fold
